Measured values: patent US9581587B2, “Sperm staining and sorting methods” (INGURAN, LLC, priority 2011, dated 2017)

Experiments:
[1] = test system: membrane compromised sperm; assay: Dead gate intensity, yellow 5 and phenol red at higher concentrations (Example 6); format: cell-based, Jersey bull; conditions: Hoechst 12 μL/2 mL
sperm [2] = assay: Split quality, dead quenching dye combined with split enhancing dye (Example 7); format: cell-based, Jersey bull
Protocol: A single Jersey bull was collected at an initial sperm concentration 1810×10^6 sperm/ml in a volume of 3.9 ml. […] Samples were split into two equal aliquots and in one of each pair of samples, a stock solution of phenol red was added to make a final phenol red concentration of 620 μM. […] At each concentration, one control was compared to the addition of phenol red as a split enhancing dye at a concentration of 620 μM. Sorting was performed on a MoFlo SX (Beckman Coulter, USA) in substantially the same manner described in Example 5. After calibration, screen shots of sorting histograms were taken and split quality was measured by the peak to valley ration in the same way described in Example 5. The resulting data is found in Table 15.

sperm [3] = assay: Post thaw motility and percent intact acrosomes of sex sorted, frozen-thawed sperm (Example 1); format: cell-based, bovine; conditions: average over all bulls; for Motility Average 3 Hour: post thaw 3 hours, treatments as E1
Protocol: Sperm was collected from 10 different bulls on a routine collection schedule using an artificial vagina over the course of 4 days. The 10 bulls included both Jersey bulls and Holstein bulls. All ejaculates contained greater than 60% progressive motility and greater than 70% morphological normal sperm. Antibiotics were added within 15 minutes of collection.
Red food dye treatment 40%—A reduced volume of red food dye No. 40 control was established. Sperm was diluted to 160×10^6 sperm per ml in a modified TALP buffer, as described in Table 1, at a pH of 7.4. Samples collected from Jersey bulls were incubated with 16 μl of Hoechst 33342 per 2 ml of sample for between 45 and 60 minutes at 34° C., while samples collected from Holstein bulls were incubated 17 μl of Hoechst 33342 per 2 ml of sample for between 45 and 60 minutes at 34° C. After incubation an equal volume of a second modified TALP was added reducing the concentration to 80×10^6. The second modified TALP includes the components described in Table 1 with the addition of 4% egg yolk, 40 μM red food dye No. 40 (20 g/L) and the pH dropped to 5.5 with HCl.
Yellow food dye was included in a second group at an equal concentration. Sperm was diluted to 160×10^6 sperm per ml in a modified TALP buffer, as described in Table 1, at a pH of 7.4. Samples collected from Jersey bulls were incubated with 14 μl of Hoechst 33342 per 2 ml of sample for between 45 and 60 minutes at 34° C., while sample collected from Holstein bulls were incubated 15 μl of Hoechst 33342 per 2 ml of sample for between 45 and 60 minutes at 34° C. After incubation an equal volume of a second modified TALP was added reducing the concentration to 80×10^6. The second modified TALP includes the components described in Table 1 with the addition 4% egg yolk, […] yellow food dye No. 6 and a pH dropped to 5.5 with HCl. […]
Straws were thawed the following day for motility measurements at 0 hour and 3 hours. Percent intact acrosomes were measured as well, and the overall averages over all bulls on each day are illustrated in Table 3. […]

[4] = test system: membrane compromised sperm; assay: Bivariate plots comparing dead quenching dyes (FIG. 3); format: cell-based; conditions: three bulls, equal amounts of Hoechst 33342 and of dye
From the text: FIG. 3 illustrates comparisons of bivariate plots generated in sex sorting sperm which reflect the intensity of the excited DNA selective fluorescent dye during sorting. Three bulls were stained with equal amounts of Hoechst 33342 and with an equal amount of yellow food dye No. 6 and red food dye No. 40. The region labeled as R4 surrounds what is considered the “dead” sperm population, while the region R1 is centered on viable, oriented sperm. It can be seen that for each bull yellow food dye no.

Structure (SMILES) | Intensity ([1]; dye 125 μM, pH 7.40) | Intensity ([1]; dye 250 μM, pH 7.40) | Intensity ([1]; dye 500 μM, pH 7.40) | Intensity ([1]; dye 750 μM, pH 7.40) | Intensity ([1]; dye 875 μM, pH 7.40) | Intensity ([1]; dye 1250 μM, second buffer pH 7.40) | peak quality of combination versus dead quencher alone (sperm [2]; phenol red 620 μM with yellow food dye No. 6 62 μM, each sperm concentration tested) | Motility Average 3 Hour (sperm [3]) | Motility Average 0 Hour (sperm [3]; post thaw 0 hour, Red = red food dye No. 40 treatment 40% (16-17 μl Hoechst 33342/2 ml), Yellow = yellow food dye No. 6 (14-15 μl)) | quenching of the dead population compared to red food dye No. 40 [4] | Height of Peak Divided by Height of Valley (sperm [2]; 150 million cells per mL, Yellow 6 62 μM, Phenol Red 0 μM)
O=S1(=O)OC(c2ccc(O)cc2)(c2ccc(O)cc2)c2ccccc21 [Phenol Red, phenolsulfonphthalein] | 85% | 76% | 66% | 56% | 47% | 43% | gives better peak quality | – | – | – | –
COc1cc(S(=O)(=O)O)c(C)cc1N=Nc1c(O)ccc2cc(S(=O)(=O)O)ccc12 [Red 40, 6-hydroxy-5-[(2-methoxy-5-methyl-4-sulfophenyl)azo]-2-naphthalenesulfonic acid, reference compound] | – | – | – | – | – | – | – | 47.0% | – | – | –
O=S(=O)([O-])c1ccc(N=Nc2c(O)ccc3cc(S(=O)(=O)[O-])ccc23)cc1.[Na+].[Na+] [Yellow 6, Disodium 6-hydroxy-5[(4-sulfophenyl)azo]-2-naphthalenesulfononate] | – | – | – | – | – | – | – | 49.0% | 57.7% | superior quenching | 1.30
